Experimental data reported in US20080234233A1, “MEDICAMENT FOR TREATMENT OF NEURODEGENERATIVE DISEASES” (INSTITUTE OF MEDICINAL MOLECULAR DESIGN INC., priority 2002, published 2008).

Test system: NF-κ B activation
Experiment: Inhibitory activity of NF-κB activation, luciferase reporter assay under TNF-α stimulation in HepG2
Type: cell-based, human
Details: HepG2, TNF-α 40 ng/ml, 4 hours; for inhibition at 1 µg/mL / inhibition at 10 µg/mL: Homo sapiens, read-out: Inhibitory rate against NF-κB activation (%)
Procedure, shortened: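 HepG2 cells transiently transfected with luciferase reporter carrying five tandem NF-κB binding sites, then stimulated with TNF-α (40 ng/ml) ± compound for 4 hours. Luminescent luciferase activity measured; inhibition expressed relative to activity without compound.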

Compound: O=C(Nc1cc(Cl)cc(Cl)c1)c1cc2ccccc2cc1O [compound 181]
- Inhibitory rate against NF-κB activation (%) (Drug concentration at 10 μg/mL): 95.1%

Compound: O=C(Nc1cc(Cl)cc(Cl)c1)c1c(O)ccc2ccccc12 [compound 182]
- Inhibitory rate against NF-κB activation (%) (Drug concentration at 1 μg/mL): 85.3%
- Inhibitory rate against NF-κB activation (%) (Drug concentration at 10 μg/mL): 90.2%

Compound: COc1ccc(OC)c(NC(=O)c2cc3ccccc3cc2O)c1 [compound 183]
- Inhibitory rate against NF-κB activation (%) (Drug concentration at 10 μg/mL): 86.8%

Compound: CC(C)(C)c1cc(NC(=O)c2cc(Cl)cnc2O)cc(C(C)(C)C)c1 [compound 184]
- Inhibitory rate against NF-κB activation (%) (Drug concentration at 1 μg/mL): 53.6%
- Inhibitory rate against NF-κB activation (%) (Drug concentration at 10 μg/mL): 63.8%

Compound: CC(C)(C)c1csc(NC(=O)c2cc(Br)ccc2O)n1 [compound 185, 5-Bromo-N-{4-[(1,1-dimethyl)ethyl]thiazol-2-yl}-2-hydroxybenzamide]
- inhibition at 1 µg/mL (Drug concentration at 1 μg/mL): 88.4%
- inhibition at 10 µg/mL (Drug concentration at 10 μg/mL): 95.2%

Compound: CC(C)(C)c1nc(NC(=O)c2cc(Br)ccc2O)sc1Br [compound 186, 5-Bromo-N-{5-bromo-4-[(1,1-dimethyl)ethyl]thiazol-2-yl}-2-hydroxybenzamide]
- inhibition at 1 µg/mL (Drug concentration at 1 μg/mL): 96.5%
- inhibition at 10 µg/mL (Drug concentration at 10 μg/mL): 98.7%

Compound: CC(C)(C)c1nc(NC(=O)c2cc(Cl)ccc2O)sc1C#N [compound 188, 5-Chloro-N-{5-cyano-4-[(1,1-dimethyl)ethyl]thiazol-2-yl}-2-hydroxybenzamide]
- inhibition at 1 µg/mL (Drug concentration at 1 μg/mL): 92.6%
- inhibition at 10 µg/mL (Drug concentration at 10 μg/mL): 92.4%

Compound: CC(C)(C)c1nc(NC(=O)c2cc(Br)ccc2O)sc1C#N [compound 189]
- Inhibitory rate against NF-κB activation (%) (Drug concentration at 1 μg/mL): 20.0%
- Inhibitory rate against NF-κB activation (%) (Drug concentration at 10 μg/mL): 93.8%

Compound: Cc1cnc(NC(=O)c2cc(Br)ccc2O)s1 [compound 190]
- Inhibitory rate against NF-κB activation (%) (Drug concentration at 10 μg/mL): 69.7%

Compound: Cc1nc(NC(=O)c2cc(Br)ccc2O)sc1C [compound 191]
- Inhibitory rate against NF-κB activation (%) (Drug concentration at 10 μg/mL): 67.2%

Compound: Cc1sc(NC(=O)c2cc(Br)ccc2O)nc1-c1ccccc1 [compound 192]
- Inhibitory rate against NF-κB activation (%) (Drug concentration at 1 μg/mL): 83.6%
- Inhibitory rate against NF-κB activation (%) (Drug concentration at 10 μg/mL): 94.4%

Compound: Cc1nc(NC(=O)c2cc(Br)ccc2O)sc1-c1ccc(F)cc1 [compound 193, 5-Bromo-N-[4-methyl-5-(4-fluorophenyl)thiazol-2-yl]-2-hydroxybenzamide]
- inhibition at 10 µg/mL (Drug concentration at 10 μg/mL): 82%

Compound: Cc1nc(NC(=O)c2cc(Br)ccc2O)sc1-c1cccc(C(F)(F)F)c1 [compound 194, 5-Bromo-N-{4-methyl-5-[3-(trifluoromethyl)phenyl]thiazol-2-yl}-2-hydroxy-benzamide]
- inhibition at 10 µg/mL (Drug concentration at 10 μg/mL): 71.7%

Compound: CC(C)c1nc(NC(=O)c2cc(Br)ccc2O)sc1-c1ccccc1 [compound 197, 5-Bromo-N-(4-isopropyl-5-phenylthiazol-2-yl)-2-hydroxybenzamide]
- inhibition at 1 µg/mL (Drug concentration at 1 μg/mL): 70.1%
- inhibition at 10 µg/mL (Drug concentration at 10 μg/mL): 96.1%

Compound: CCCCc1nc(NC(=O)c2cc(Br)ccc2O)sc1-c1ccccc1 [compound 198, 5-Bromo-N-(4-butyl-5-phenylthiazol-2-yl)-2-hydroxybenzamide]
- inhibition at 1 µg/mL (Drug concentration at 1 μg/mL): 46.1%
- inhibition at 10 µg/mL (Drug concentration at 10 μg/mL): 88.7%

Compound: CC(=O)Oc1ccc(Cl)cc1C(=O)Nc1nc(C(C)(C)C)c(C(=O)C(C)(C)C)s1 [compound 200]
- Inhibitory rate against NF-κB activation (%) (Drug concentration at 1 μg/mL): 95.0%
- Inhibitory rate against NF-κB activation (%) (Drug concentration at 10 μg/mL): 97.7%

Compound: CCOC(=O)c1sc(NC(=O)c2cc(Br)ccc2O)nc1C(C)(C)C [compound 202, 2-(5-Bromo-2-hydroxybenzoyl)amino-4-[(1,1-dimethyl)ethyl]thiazole-5-carboxylic acid ethyl ester]
- inhibition at 1 µg/mL (Drug concentration at 1 μg/mL): 84.5%
- inhibition at 10 µg/mL (Drug concentration at 10 μg/mL): 92.4%

Compound: CC(C)(C)c1nc(NC(=O)c2cc(Br)ccc2O)sc1N1CCCCC1 [compound 204, 5-Bromo-N-{4-[(1,1-dimethyl)ethyl]-5-piperidinothiazol-2-yl}-2-hydroxybenzamide]
- inhibition at 1 µg/mL (Drug concentration at 1 μg/mL): 93.6%
- inhibition at 10 µg/mL (Drug concentration at 10 μg/mL): 97.8%

Compound: CC(C)(C)c1nc(NC(=O)c2cc(Br)ccc2O)sc1N1CCOCC1 [compound 205, 5-Bromo-N-{4-[(1,1-dimethyl)ethyl]-5-morpholinothiazol-2-yl}-2-hydroxybenzamide]
- inhibition at 1 µg/mL (Drug concentration at 1 μg/mL): 87.8%
- inhibition at 10 µg/mL (Drug concentration at 10 μg/mL): 96.8%

Compound: CN1CCN(c2sc(NC(=O)c3cc(Br)ccc3O)nc2C(C)(C)C)CC1 [compound 206, 5-Bromo-N-{4-[(1,1-dimethyl)ethyl]-5-(4-methylpiperazin-1-yl)thiazol-2-yl}-2-hydroxybenzamide]
- inhibition at 1 µg/mL (Drug concentration at 1 μg/mL): 36.3%
- inhibition at 10 µg/mL (Drug concentration at 10 μg/mL): 89.6%

Compound: CC(C)(C)c1nc(NC(=O)c2cc(Br)ccc2O)sc1N1CCN(c2ccccc2)CC1 [compound 207, 5-Bromo-N-{4-[(1,1-dimethyl)ethyl]-5-(4-phenylpiperazin-1-yl)thiazol-2-yl}-2-hydroxybenzamide]
- inhibition at 1 µg/mL (Drug concentration at 1 μg/mL): 92.5%
- inhibition at 10 µg/mL (Drug concentration at 10 μg/mL): 95.9%

Compound: O=C(Nc1nc(-c2ccccc2)cs1)c1cc(Br)ccc1O [compound 208]
- Inhibitory rate against NF-κB activation (%) (Drug concentration at 10 μg/mL): 78.8%

Compound: O=C(O)Cc1sc(NC(=O)c2cc(Br)ccc2O)nc1-c1ccccc1 [compound 210]
- Inhibitory rate against NF-κB activation (%) (Drug concentration at 10 μg/mL): 72.1%

Compound: O=C(Nc1nc(Cc2ccccc2)c(-c2ccccc2)s1)c1cc(Br)ccc1O [compound 212]
- Inhibitory rate against NF-κB activation (%) (Drug concentration at 1 μg/mL): 79.7%
- Inhibitory rate against NF-κB activation (%) (Drug concentration at 10 μg/mL): 95.0%

Compound: O=C(Nc1nc(C(F)(F)F)c(-c2ccccc2)s1)c1cc(Br)ccc1O [compound 213]
- Inhibitory rate against NF-κB activation (%) (Drug concentration at 1 μg/mL): 85.1%
- Inhibitory rate against NF-κB activation (%) (Drug concentration at 10 μg/mL): 89.4%

Compound: CC(=O)c1sc(NC(=O)c2cc(Br)ccc2O)nc1-c1ccccc1 [compound 214, 5-Bromo-N-(5-acetyl-4-phenylthiazol-2-yl)-2-hydroxybenzamide]
- inhibition at 1 µg/mL (Drug concentration at 1 μg/mL): 70.2%
- inhibition at 10 µg/mL (Drug concentration at 10 μg/mL): 95.9%

Compound: O=C(Nc1nc(-c2ccccc2)c(C(=O)c2ccccc2)s1)c1cc(Br)ccc1O [compound 215, 5-Bromo-N-(5-benzoyl-4-phenylthiazol-2-yl)-2-hydroxybenzamide]
- inhibition at 1 µg/mL (Drug concentration at 1 μg/mL): 90.7%
- inhibition at 10 µg/mL (Drug concentration at 10 μg/mL): 97.3%

Compound: CCOC(=O)c1sc(NC(=O)c2cc(Br)ccc2O)nc1-c1ccccc1 [compound 216, 2-(5-bromo-2-hydroxybenzoyl)amino-4-phenylthiazole-5-carboxylic acid ethyl ester]
- inhibition at 1 µg/mL (Drug concentration at 1 μg/mL): 55.8%
- inhibition at 10 µg/mL (Drug concentration at 10 μg/mL): 82.8%

Compound: CCOC(=O)c1sc(NC(=O)c2cc(Br)ccc2O)nc1-c1ccccc1 [compound 218]
- Inhibitory rate against NF-κB activation (%) (Drug concentration at 1 μg/mL): 80.7%
- Inhibitory rate against NF-κB activation (%) (Drug concentration at 10 μg/mL): 94.2%

Compound: CCOC(=O)c1sc(NC(=O)c2cc(Br)ccc2O)nc1-c1c(F)c(F)c(F)c(F)c1F [compound 219, Ethyl 2-(5-bromo-2-hydroxybenzoyl)amino-4-(pentafluorophenyl)thiazole-5-carboxylate]
- inhibition at 1 µg/mL (Drug concentration at 1 μg/mL): 82.2%
- inhibition at 10 µg/mL (Drug concentration at 10 μg/mL): 96%

Compound: CNC(=O)c1sc(NC(=O)c2cc(Br)ccc2O)nc1-c1ccccc1 [compound 220]
- Inhibitory rate against NF-κB activation (%) (Drug concentration at 1 μg/mL): 50.8%
- Inhibitory rate against NF-κB activation (%) (Drug concentration at 10 μg/mL): 58.6%

Compound: CCNC(=O)c1sc(NC(=O)c2cc(Br)ccc2O)nc1-c1ccccc1 [compound 221]
- Inhibitory rate against NF-κB activation (%) (Drug concentration at 1 μg/mL): 51.9%
- Inhibitory rate against NF-κB activation (%) (Drug concentration at 10 μg/mL): 84.0%

Compound: CC(C)NC(=O)c1sc(NC(=O)c2cc(Br)ccc2O)nc1-c1ccccc1 [compound 222]
- Inhibitory rate against NF-κB activation (%) (Drug concentration at 1 μg/mL): 49.6%
- Inhibitory rate against NF-κB activation (%) (Drug concentration at 10 μg/mL): 91.3%

Compound: O=C(Nc1nc(-c2ccccc2)c(C(=O)NCCc2ccccc2)s1)c1cc(Br)ccc1O [compound 223]
- Inhibitory rate against NF-κB activation (%) (Drug concentration at 1 μg/mL): 33.3%
- Inhibitory rate against NF-κB activation (%) (Drug concentration at 10 μg/mL): 60.4%

Compound: CCOC(=O)c1sc(NC(=O)c2cc(Br)ccc2O)nc1C(F)(F)F [compound 224]
- Inhibitory rate against NF-κB activation (%) (Drug concentration at 1 μg/mL): 87.6%
- Inhibitory rate against NF-κB activation (%) (Drug concentration at 10 μg/mL): 96.5%

Compound: CCOC(=O)c1sc(NC(=O)c2cc(-c3ccc(F)cc3)ccc2O)nc1-c1ccccc1 [compound 226]
- Inhibitory rate against NF-κB activation (%) (Drug concentration at 1 μg/mL): 45.0%
- Inhibitory rate against NF-κB activation (%) (Drug concentration at 10 μg/mL): 85.8%

Compound: CCOC(=O)c1sc(NC(=O)c2cc(-c3ccc(F)cc3F)ccc2O)nc1-c1ccccc1 [compound 227]
- Inhibitory rate against NF-κB activation (%) (Drug concentration at 1 μg/mL): 31.8%
- Inhibitory rate against NF-κB activation (%) (Drug concentration at 10 μg/mL): 90.3%

Compound: CCOC(=O)c1sc(NC(=O)c2cc(-c3ccc(C(F)(F)F)cc3)ccc2O)nc1-c1ccccc1 [compound 228, 2-{[4-Hydroxy-4′-(trifluoromethyl)biphenyl]-3-carbonyl}amino-4-phenylthiazole-5-carboxylic acid ethyl ester]
- Inhibitory rate against NF-κB activation (%) (Drug concentration at 10 μg/mL): 90.0%

Compound: CCOC(=O)c1sc(NC(=O)c2cc(-n3cccc3)ccc2O)nc1-c1ccccc1 [compound 229]
- Inhibitory rate against NF-κB activation (%) (Drug concentration at 1 μg/mL): 74.0%
- Inhibitory rate against NF-κB activation (%) (Drug concentration at 10 μg/mL): 90.1%

Compound: CCOC(=O)c1sc(NC(=O)c2cc(-c3cccs3)ccc2O)nc1-c1ccccc1 [compound 230, 2-[2-Hydroxy-5-(2-thienyl)benzoyl]amino-4-phenylthiazole-5-carboxylic acid ethyl ester]
- inhibition at 1 µg/mL (Drug concentration at 1 μg/mL): 40.8%
- inhibition at 10 µg/mL (Drug concentration at 10 μg/mL): 84.8%

Compound: O=C(Nc1nc(-c2cc(C(F)(F)F)cc(C(F)(F)F)c2)cs1)c1cc(Cl)ccc1O [compound 231, 5-Chloro-2-hydroxy-N-{4-[3,5-bis(trifluoromethyl)phenyl]thiazol-2-yl}benzamide]
- inhibition at 1 µg/mL (Drug concentration at 1 μg/mL): 95.9%
- inhibition at 10 µg/mL (Drug concentration at 10 μg/mL): 94.5%

Compound: CCOC(=O)c1c(NC(=O)c2cc(Cl)ccc2O)sc2c1CCCC2 [compound 232]
- Inhibitory rate against NF-κB activation (%) (Drug concentration at 1 μg/mL): 88.2%
- Inhibitory rate against NF-κB activation (%) (Drug concentration at 10 μg/mL): 85.4%

Compound: O=C(Nc1cc(-c2ccccc2)[nH]n1)c1cc(Br)ccc1O [compound 233]
- Inhibitory rate against NF-κB activation (%) (Drug concentration at 1 μg/mL): 26.6%
- Inhibitory rate against NF-κB activation (%) (Drug concentration at 10 μg/mL): 84.7%

Compound: CCc1nc(NC(=O)c2cc(Br)ccc2O)oc1CC [compound 234, 5-Bromo-N-(4,5-diethyloxazol-2-yl)-2-hydroxybenzamide]
- inhibition at 1 µg/mL (Drug concentration at 1 μg/mL): 29.1%
- inhibition at 10 µg/mL (Drug concentration at 10 μg/mL): 63.1%

Compound: O=C(Nc1nc(-c2ccccc2)c(-c2ccccc2)o1)c1cc(Br)ccc1O [compound 235]
- Inhibitory rate against NF-κB activation (%) (Drug concentration at 10 μg/mL): 81.8%

Compound: O=C(Nc1nc(-c2ccco2)c(-c2ccco2)o1)c1cc(Br)ccc1O [compound 236, 5-Bromo-N-[4,5-bis(furan-2-yl)oxazol-2-yl]-2-hydroxybenzamide]
- inhibition at 1 µg/mL (Drug concentration at 1 μg/mL): 21.4%
- inhibition at 10 µg/mL (Drug concentration at 10 μg/mL): 56%
